The text below walks through data of ChEMBL document CHEMBL1130203, “Novel fluoroquinolone antibacterial agents containing oxime-substituted (aminomethyl)pyrrolidines: synthesis and antibacterial activity of 7-(4-(aminomethyl)-3-(methoxyimino)pyrrolidin-1-yl)-1-cyclopropyl-6- fluoro-4-oxo-1,4-dihydro[1,8]naphthyridine-3-carboxylic acid (LB20304)” (J Med Chem, 1997).

Values after ≈ are worked out from the molar mass of the structure shown.

Type in all cases: functional
For assay [1], the system named is Staphylococcus aureus. The assay is described as follows: Minimum inhibitory concentration (MIC) against Staphylococcus aureus giorgio.
The test system of assay [2] is Enterococcus faecalis. Briefly: Minimum inhibitory concentration (MIC) against Streptococcus faecalis 29212. Particulars: Enterococcus faecalis; read-out: MIC.
Assay [3] has as its system Klebsiella aerogenes. Briefly: Minimum inhibitory concentration (MIC) against Klebsiella aerogenes 1082E. Particulars: Klebsiella aerogenes; read-out: MIC.
The test system of assay [4] is Enterobacter cloacae. The assay is described as follows: Minimum inhibitory concentration (MIC) against Enterobacter cloacae P99.
For assay [5], the system named is Staphylococcus epidermidis. The assay is described as follows: Minimum inhibitory concentration (MIC) against Staphylococcus epidermidis 887E.
In assay [6] the test system is Escherichia coli. The assay is described as follows: Minimum inhibitory concentration (MIC) against Escherichia coli 10536.
Assay [7] deals with Staphylococcus aureus. Briefly: Minimum inhibitory concentration (MIC) against Staphylococcus aureus 6538p.
Assay [8] deals with Escherichia coli. Briefly: Minimum inhibitory concentration (MIC) against Escherichia coli TEM9 2639E. The note with it: Escherichia coli; read-out: MIC.
The subject of assay [9] is Acinetobacter calcoaceticus. The assay is described as follows: Minimum inhibitory concentration (MIC) against Acinetobacter calcoaceticus 15473. Particulars: Acinetobacter calcoaceticus; read-out: MIC.
Assay [10] relates to Pseudomonas aeruginosa. Briefly: Minimum inhibitory concentration (MIC) against Pseudomonas aeruginosa 1912E. Particulars: Pseudomonas aeruginosa; read-out: MIC.
Assay [11] has as its system Staphylococcus epidermidis. Briefly: Minimum inhibitory concentration (MIC) against Staphylococcus epidermidis 178. Particulars: Staphylococcus epidermidis; read-out: MIC.
For assay [12], the system named is Bacillus subtilis. Briefly: Minimum inhibitory concentration (MIC) against Bacillus subtilis ATCC 6633.
In assay [13] the test system is Staphylococcus aureus. The assay is described as follows: Minimum inhibitory concentration (MIC) against Staphylococcus aureus 241. The note with it: Staphylococcus aureus; read-out: MIC.
In assay [14] the test system is Escherichia coli. Briefly: Minimum inhibitory concentration (MIC) against Escherichia coli 3190Y.
The test system of assay [15] is Acinetobacter calcoaceticus. Briefly: Minimum inhibitory concentration (MIC) against Acinetobacter calcoaceticus 5473.

Regarding `CCCO/N=C1\CN(c2nc3c(cc2F)c(=O)c(C(=O)O)cn3C2CC2)CC1CN` (configuration not stated), the MIC in [1] was less than 0.008 µg/mL; in assay [2], 0.063 µg/mL (≈ 0.151 µM); in assay [3], 0.13 µg/mL (≈ 0.311 µM); in assay [4] it was less than 0.008 µg/mL; in [5] it was less than 0.008 µg/mL; in [6] it was less than 0.008 µg/mL. The MIC in [7] is 0.008 µg/mL (≈ 0.0192 µM); in assay [8], 0.063 µg/mL (≈ 0.151 µM); in [9], 0.031 µg/mL (≈ 0.0743 µM); in [10], 1 µg/mL (≈ 2.4 µM); in assay [11], 1 µg/mL (≈ 2.4 µM); in [12], less than 0.008 µg/mL. Also, the values for the MIC in [13] and in assay [14] were 2 µg/mL (≈ 4.79 µM) and less than 0.008 µg/mL, respectively.

For the molecule `CCO/N=C1\CN(c2nc3c(cc2F)c(=O)c(C(=O)O)cn3C2CC2)CC1CN` (configuration not stated), the MIC was less than 0.008 µg/mL in [1]; 0.063 µg/mL (≈ 0.156 µM) in [2]; 0.031 µg/mL (≈ 0.0768 µM) in assay [3]; less than 0.008 µg/mL in [4]; less than 0.008 µg/mL in [5]; less than 0.008 µg/mL in assay [6]. Also, the MIC is less than 0.008 µg/mL in assay [7]; 0.031 µg/mL (≈ 0.0768 µM) in assay [8]; 0.016 µg/mL (≈ 0.0397 µM) in assay [9]; 0.5 µg/mL (≈ 1.24 µM) in [10]; 2 µg/mL (≈ 4.96 µM) in assay [11]; less than 0.008 µg/mL in assay [12]. The MIC in [13] was 2 µg/mL (≈ 4.96 µM); in [14], less than 0.008 µg/mL.

Take `NCC1CN(c2nc3c(cc2F)c(=O)c(C(=O)O)cn3C2CC2)C/C1=N\O` (configuration not stated): the MIC worked out at 0.031 µg/mL (≈ 0.0826 µM) in assay [1]; 0.25 µg/mL (≈ 0.666 µM) in [2]; 0.13 µg/mL (≈ 0.346 µM) in assay [3]; 0.031 µg/mL (≈ 0.0826 µM) in assay [4]; 0.031 µg/mL (≈ 0.0826 µM) in assay [5]; 0.031 µg/mL (≈ 0.0826 µM) in assay [6]. Moreover, the MIC was 0.031 µg/mL (≈ 0.0826 µM) in [7]; 0.13 µg/mL (≈ 0.346 µM) in [8]; 0.13 µg/mL (≈ 0.346 µM) in assay [9]; 2 µg/mL (≈ 5.33 µM) in assay [10]; 8 µg/mL (≈ 21.3 µM) in [11]; 0.016 µg/mL (≈ 0.0426 µM) in assay [12]. The MIC in [13] stood at 8 µg/mL (≈ 21.3 µM); in [14], 0.016 µg/mL (≈ 0.0426 µM).

Regarding `CNCC1CN(c2nc3c(cc2F)c(=O)c(C(=O)O)cn3C2CC2)C/C1=N\OC` (configuration not stated), the MIC was determined as 0.13 µg/mL (≈ 0.322 µM) in assay [1]; 0.5 µg/mL (≈ 1.24 µM) in assay [2]; 0.5 µg/mL (≈ 1.24 µM) in [3]; 0.13 µg/mL (≈ 0.322 µM) in assay [4]; 0.13 µg/mL (≈ 0.322 µM) in [5]; 0.063 µg/mL (≈ 0.156 µM) in [6]. In addition, the MIC in [7] was 0.063 µg/mL (≈ 0.156 µM); in assay [8], 0.5 µg/mL (≈ 1.24 µM); in [9], 1 µg/mL (≈ 2.48 µM); in assay [10], 2 µg/mL (≈ 4.96 µM); in [11], 128 µg/mL (≈ 317 µM); in assay [12] it was 0.25 µg/mL (≈ 0.62 µM). For the same molecule, the MIC in assay [13] came to 128 µg/mL (≈ 317 µM); in assay [14], 0.063 µg/mL (≈ 0.156 µM).

Consider `CO/N=C1\CN(c2c(F)c(N)c3c(=O)c(C(=O)O)cn(C4CC4)c3c2F)CC1CN` (configuration not stated), for which the MIC in assay [1] was less than 0.008 µg/mL; in [2], 0.016 µg/mL (≈ 0.038 µM); in [3], 0.016 µg/mL (≈ 0.038 µM); in [4] it was less than 0.008 µg/mL; in [5] it was less than 0.008 µg/mL; in assay [6], less than 0.008 µg/mL. In addition, the MIC is less than 0.008 µg/mL in assay [7]; 0.016 µg/mL (≈ 0.038 µM) in assay [8]; 0.25 µg/mL (≈ 0.593 µM) in [10]; 0.25 µg/mL (≈ 0.593 µM) in assay [11]; less than 0.008 µg/mL in [12]; 0.25 µg/mL (≈ 0.593 µM) in [13]. Besides, the MIC in assay [14] is 0.016 µg/mL (≈ 0.038 µM); in assay [15], 0.031 µg/mL (≈ 0.0736 µM).

As to `CC(C)O/N=C1\CN(c2nc3c(cc2F)c(=O)c(C(=O)O)cn3C2CC2)CC1CN` (configuration not stated), the MIC in assay [1] is less than 0.008 µg/mL; in [2], 0.063 µg/mL (≈ 0.151 µM); in [3], 0.13 µg/mL (≈ 0.311 µM); in assay [4] it was less than 0.008 µg/mL; in assay [5], less than 0.008 µg/mL; in assay [6], less than 0.008 µg/mL. The MIC in assay [7] is less than 0.008 µg/mL; in assay [8], 0.063 µg/mL (≈ 0.151 µM); in assay [9] it was 0.031 µg/mL (≈ 0.0743 µM); in [10], 1 µg/mL (≈ 2.4 µM); in assay [11], 1 µg/mL (≈ 2.4 µM); in assay [12] it was less than 0.008 µg/mL. For the same molecule, the MIC was 2 µg/mL (≈ 4.79 µM) in assay [13] and less than 0.008 µg/mL in [14].

As to `NCC1CN(c2nc3c(cc2F)c(=O)c(C(=O)O)cn3C2CC2)C/C1=N\OCc1ccccc1` (configuration not stated), the MIC in [1] is less than 0.008 µg/mL; in assay [2], 0.031 µg/mL (≈ 0.0666 µM); in [3], 0.063 µg/mL (≈ 0.135 µM); in assay [4], less than 0.008 µg/mL; in [5] it was less than 0.008 µg/mL; in [6] it was less than 0.008 µg/mL. Also, the MIC in [7] is less than 0.008 µg/mL; in assay [8], 0.063 µg/mL (≈ 0.135 µM); in assay [9] it was less than 0.008 µg/mL; in assay [10] it was 1 µg/mL (≈ 2.15 µM); in assay [11], 2 µg/mL (≈ 4.3 µM); in assay [12] it was less than 0.008 µg/mL. In addition, the MIC in assay [13] is 2 µg/mL (≈ 4.3 µM); in assay [14], less than 0.008 µg/mL.

As to `CO/N=C1\CN(c2c(F)cc3c(=O)c(C(=O)O)cn(C4CC4)c3c2OC)CC1CN` (configuration not stated), the MIC came to 0.016 µg/mL (≈ 0.0382 µM) in assay [1]; 0.063 µg/mL (≈ 0.151 µM) in [2]; 0.25 µg/mL (≈ 0.597 µM) in assay [3]; 0.063 µg/mL (≈ 0.151 µM) in assay [4]; 0.031 µg/mL (≈ 0.0741 µM) in [5]; 0.063 µg/mL (≈ 0.151 µM) in [6]. For the same molecule, the MIC is 0.031 µg/mL (≈ 0.0741 µM) in assay [7]; 0.25 µg/mL (≈ 0.597 µM) in [8]; 0.25 µg/mL (≈ 0.597 µM) in [9]; 2 µg/mL (≈ 4.78 µM) in assay [10]; 1 µg/mL (≈ 2.39 µM) in assay [11]; 0.031 µg/mL (≈ 0.0741 µM) in assay [12]. Besides, the MIC in assay [13] is 1 µg/mL (≈ 2.39 µM); in assay [14], 0.031 µg/mL (≈ 0.0741 µM).

Broadly, the MIC is the smallest concentration in the dilution series that meets the test's criterion for growth inhibition.
